Columns and labels:
[1] = system: Albino wistar rats; assay: Hypoglycemic activity: inhibition of sucrose-induced raise in serum glucose levels (SGL); format: in vivo; set-up: Inhibitory rate (serum glucose level inhibitory rate): unit not given here; settings: oral dose 1 mg/Kg; for SGL (mean ± SE): 20 mL/kg of 20% sucrose orally after 30 minutes, blood drawn one hour after treatment, groups of six rats; for Inhibitory rate (serum glucose level inhibitory rate): mean increase in serum glucose levels of treated vs control groups
Procedure: Hypoglycemic activity: Hypoglycemic activity was tested by the inhibition of sucrose-induced raise in serum glucose levels (SGL), by the test substances in Albino wistar rats. The procedure involves fasting the rats for overnight at ad libitum water, numbered weighed and randomly divided into groups of six animals each. Prior to treatment blood samples were drawn from sinus orbital plexus of all animals using heparin coated glass capillaries under mild ether anesthesia. The blood samples were tested for serum glucose levels using enzymatic GOD/POD method. […] SGL=(test OD/Standard OD)×100 and the results were expressed in mg/dL. All the groups were treated orally with corresponding test substances, standard, vehicle (5% gum acacia). After 30 minutes, all animals were given 20 mL/kg of 20% sucrose solution orally using gastric tube. One hour after treatment, blood samples were drawn again under mild ether anesthesia and tested for serum glucose levels in a same procedure as described above for initial serum glucose estimation. The data was subjected to statistical treatment using t-test and inhibitory rate was calculated by comparing mean increase in serum glucose levels of control and treated groups. The corosolic acid analogs of this invention are found to show better hypoglycemic activity (Table 1; hypoglycemic activity is expressed in serum glucose level inhibitory rate values; higher the inhibitory rate value, higher is the activity) than the corosolic acid.

[2] = in vivo; settings: Artemia salina (brine shrimp), pH 8.5; 24 h at 37° C., 10 nauplii per vial
Procedure: (§1) Brine shrimp lethality: Brine shrimp (Artemia salina) nauplii were hatched using brine shrimp eggs in a conical shaped vessel (1 L), filled with sterile artificial sea water (prepared using sea salt 38 g/L and adjusted to pH 8.5 using 1 N NaOH) under constant aeration for 48 h. After hatching, 10 nauplii were drawn through a pepette and placed in each vial containing 4.5 mL brine solution and added various concentrations of drug solutions and volume was made upto 5 mL using brine solution and maintained at 37° C. for 24 h under the light of incandescent lamps and surviving larvae were counted. Each experiment was conducted along with control (vehicle treated), at various concentrations of the test substance in each set that contains 6 tubes and the average results are reported. The percentage lethality was determined by comparing the mean mortal larvae of test and control tubes. LC50 values were obtained from the plot of concentration (μg) vs. percentage lethality. Podophyllotoxin was used as a positive control.
(§2) The corosolic acid analogs of this invention are found to show significant brine shrimp lethality (Table 3; brine shrimp lethality is expressed in LC50 at μM concentration; lower the LC50 value, higher is the activity).

[3] = system: 5-Lipoxygenase; assay: 5-Lipoxygenase inhibitory activity, colorimetric method (ferric xylenol orange, linoleic acid); format: biochemical
Procedure: 5-Lipoxygenase activity: The corosolic acid analogs were screened for their 5-Lipoxygenase inhibitory potential using colorimetric method. The assay mixture contained 50 mM phosphate buffer pH 6.3, 5-Lipoxygenase, various concentrations of test substances in dimethyl sulphoxide and linoleic acid in a total volume of 0.5 mL, after 5 min incubation of above reaction mixture, 0.5 mL ferric xylenol orange reagent was added and OD was measured after two minutes at 585 nm using spectrophotometer. Controls were run along with test in a similar manner except using vehicle instead of test substance solution. Percent inhibition was calculated by comparing absorbance of test solution with that of control.
The corosolic acid analogs of this invention are found to show good 5-lipoxygenase activity (Table 2; 5-lipoxygenase activity is expressed in % of inhibition at 100 μM and 250 μM; higher the % inhibitory values, higher is the activity).

[4] = system: Brine shrimp (Artemia salina) nauplii; assay: in vivo; settings: 24 h at 37° C., 10 nauplii per vial
Procedure: as §1, §2

| Compound | SGL (mean ± SE) [1] | Inhibitory rate (serum glucose level inhibitory rate) [1] | LC50 at 24 h [2] | 5-LOX inhibitory activity (in words) [3] | % inhibition of 5-Lox activity ([3]; 100 μM) | % inhibition of 5-Lox activity ([3]; 250 μM) | LC50 [4] |
| --- | --- | --- | --- | --- | --- | --- | --- |
| C[C@H]1[C@H](C)CC[C@]2(C(=O)O)CC[C@]3(C)C(=CC[C@@H]4[C@@]5(C)C[C@@H](O)[C@H](O)C(C)(C)[C@@H]5CC[C@]43C)[C@H]12 [Corosolic acid, 2α-hydroxyursolic acid] | 121.43 ± 6.27 mg/dL | 9.78 | 3 µM | on par with 3-O-acetyl-11-keto-β-boswellic acid (AKBA) | 13.48% | 29.26% |  |
| COc1cc([C@@H]2c3cc4c(cc3[C@H](O)[C@H]3COC(=O)[C@H]23)OCO4)cc(OC)c1OC [podophyllotoxin, Podophyllotoxin, reference compound] |  |  | 7.7 µM |  |  |  |  |
| C[C@H]1[C@H](C)CC[C@]2(C(N)=O)CC[C@]3(C)C(=CC[C@@H]4[C@@]5(C)C[C@@H](O)[C@H](O)C(C)(C)[C@@H]5CC[C@]43C)[C@H]12 [Compound 8, Corosolamide] | 110.14 ± 3.18 mg/dL | 18.15 |  |  | 26.13% | 51.29% | 29 µM |
| Corosolinol [Compound 23] | 113.06 ± 2.61 mg/dL | 30.59 |  |  | 2.91% | 19.63% | 30.7 µM |
| CC1CCC2(C(=O)N3CCNCC3)CCC3(C)C(=CCC4C5(C)CC(O)C(O)C(C)(C)C5CCC43C)C2C1C (stereo not shown) [Compound 11, N-(Corosolyl)piperazine] | 107.88 ± 4.61 mg/dL | 19.83 |  |  | 35.42% | 64.99% | 9.2 µM |
| C[C@H]1[C@H](C)CC[C@]2(C(N)=O)CC[C@]3(C)C(=CC(=O)[C@@H]4[C@@]5(C)C[C@@H](O)[C@H](O)C(C)(C)[C@@H]5CC[C@]43C)[C@H]12 [Compound 20, 11-Ketocorosolamide] | 142.81 ± 7.30 mg/dL | 12.33 |  |  | 18.57% | 42.79% | > 100 µM |
| COC(=O)[C@]12CC[C@@H](C)[C@H](C)[C@H]1C1=CC[C@@H]3[C@@]4(C)C[C@@H](O)[C@H](O)C(C)(C)[C@@H]4CC[C@@]3(C)[C@]1(C)CC2 [Compound 13, Methyl corosolate] | 118.94 ± 8.61 mg/dL | 11.6 |  |  | 17.3% | 40.04% | 10.2 µM |
| CC1CCC2(C(=O)NCCO)CCC3(C)C(=CCC4C5(C)CC(O)C(O)C(C)(C)C5CCC43C)C2C1C (stereo not shown) [Compound 12, N-(2-Hydroxyethyl)corosolamide] | 103.49 ± 7.12 mg/dL | 36.47 |  |  | 17.74% | 32.96% | > 100 µM |
